Results taken from US12421240B2, “Hydropyrazino[1,2-d][1,4]diazepine compounds for the treatment of autoimmune disease” (Hoffmann-La Roche Inc., priority 2019, dated 2025).
pIC50: −log10 of the molar value.

How the values were obtained:
[1] = target: T1, human TLR9 (Homo sapiens, UniProt Q9NR96); assay: HEK293-Blue-hTLR-9 cells assay (SEAP reporter, ODN2006 stimulation); format: cell-based; details: HEK293-Blue-hTLR9 cells, ODN2006 ligand, 20 hrs; read-out: HEK/hTLR9 IC50
T1 sequence (Q9NR96 26-1032): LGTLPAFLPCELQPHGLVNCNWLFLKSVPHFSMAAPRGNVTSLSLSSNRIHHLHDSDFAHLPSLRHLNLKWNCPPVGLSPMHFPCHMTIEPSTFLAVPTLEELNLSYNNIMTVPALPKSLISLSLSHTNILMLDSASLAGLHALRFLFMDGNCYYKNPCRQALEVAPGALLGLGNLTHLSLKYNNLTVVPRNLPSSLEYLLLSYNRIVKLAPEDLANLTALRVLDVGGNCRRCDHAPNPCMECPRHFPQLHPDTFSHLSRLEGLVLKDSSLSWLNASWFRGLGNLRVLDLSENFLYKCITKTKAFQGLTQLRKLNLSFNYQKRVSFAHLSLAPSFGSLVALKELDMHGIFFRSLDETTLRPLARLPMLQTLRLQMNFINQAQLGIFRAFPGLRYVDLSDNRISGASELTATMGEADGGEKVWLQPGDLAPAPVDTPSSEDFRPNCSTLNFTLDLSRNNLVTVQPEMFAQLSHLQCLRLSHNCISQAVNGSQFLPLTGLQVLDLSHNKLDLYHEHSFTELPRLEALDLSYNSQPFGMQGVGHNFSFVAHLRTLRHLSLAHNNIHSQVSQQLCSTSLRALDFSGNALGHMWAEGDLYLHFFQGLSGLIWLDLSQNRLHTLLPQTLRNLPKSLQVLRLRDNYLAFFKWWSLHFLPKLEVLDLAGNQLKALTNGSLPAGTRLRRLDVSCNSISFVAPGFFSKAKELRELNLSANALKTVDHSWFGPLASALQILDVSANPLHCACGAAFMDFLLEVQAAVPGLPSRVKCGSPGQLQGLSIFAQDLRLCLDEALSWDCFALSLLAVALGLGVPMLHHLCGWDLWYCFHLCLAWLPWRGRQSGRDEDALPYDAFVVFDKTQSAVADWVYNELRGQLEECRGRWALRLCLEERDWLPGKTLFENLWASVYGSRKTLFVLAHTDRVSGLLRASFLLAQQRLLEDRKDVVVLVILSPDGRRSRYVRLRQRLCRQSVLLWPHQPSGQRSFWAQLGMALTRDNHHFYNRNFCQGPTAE
Description: The following tests were carried out in order to determine the activity of the compounds of formula (I), (Ia) or (Ib) in HEK293-Blue-hTLR-7/8/9 cells assay.
HEK293-Blue-hTLR-9 Cells Assay:
A stable HEK293-Blue-hTLR-9 cell line was purchased from InvivoGen (Cat. #: hkb-htlr9, San Diego, California, USA). These cells were originally designed for studying the stimulation of human TLR9 by monitoring the activation of NF-κB. A SEAP (secreted embryonic alkaline phosphatase) reporter gene was placed under the control of the IFN-β minimal promoter fused to five NF-κB and AP-1-binding sites. The SEAP was induced by activating NF-κB and AP-1 via stimulating HEK-Blue hTLR9 cells with TLR9 ligands. Therefore the reporter expression was declined by TLR9 antagonist under the stimulation of a ligand, such as ODN2006 (Cat. #: tlrl-2006-1, Invivogen, San Diego, California, USA), for incubation of 20 hrs. The cell culture supernatant SEAP reporter activity was determined using QUANTI-Blue™ kit (Cat. #: rep-qb1, Invivogen, San Diego, California, USA) at a wavelength of 640 nm, a detection medium that turns purple or blue in the presence of alkaline phosphatase.
HEK293-Blue-hTLR9 cells were incubated at a density of 250,000˜450,000 cells/mL in a volume of 170 μL in a 96-well plate in Dulbecco's Modified Eagle's medium (DMEM) containing 4.5 g/L glucose, 50 U/mL penicillin, […], 2 mM L-glutamine, 10% (v/v) heat-inactivated fetal bovine serum with addition of 20 μL test compound in a serial dilution in the presence of final DMSO at 1% and 10 μL of 20 uM ODN2006 in above DMEM, perform incubation under 37° C. in a CO2 incubator for 20 hrs. Then 20 μL of the supernatant from each well was incubated with 180 μL Quanti-blue substrate solution at 37° C. for 2 h and the absorbance was read at 620-655 nm using a spectrophotometer. The signaling pathway that TLR9 activation leads to downstream NF-κB activation has been widely accepted, and therefore similar reporter assay was modified for evaluating TLR9 antagonist.

[2] = Human microsomal stability assay; format: in vitro ADME; details: human liver microsomes, 1 μM test compound, 0.5 mg/mL protein, 37° C.; low <7.0, medium 7.0-16.2, high 16.2-23.2
Description: Human Microsomal Stability Assay
Human liver microsomes (Cat. NO.: 452117, Corning, USA) were preincubated with test compound for 10 minutes at 37° C. in 100 mM potassium phosphate buffer, pH 7.4. The reactions were initiated by adding NADPH regenerating system. The final incubation mixtures contained 1 μM test compound, 0.5 mg/mL liver microsomal protein, 1 mM MgCl2, 1 mM NADP, 1 unit/mL isocitric dehydrogenase and 6 mM isocitric acid in 100 mM potassium phosphate buffer, pH 7.4. After incubation times of 0, 3, 6, 9, 15 and 30 minutes at 37° C., 300 μL of cold ACN (including internal standard) was added to 100 μL incubation mixture to terminate the reaction. Following precipitation and centrifugation, 100 uL supernatant will be taken out and added 300 uL water. The amount of compound remaining in the samples was determined by LC-MS/MS. Controls of no NADPH regenerating system at zero and 30 minutes were also prepared and analyzed. The results were categorized as: low (<7.0 mL/min/kg), medium (7.0-16.2 mL/min/kg) and high (16.2-23.2 mL/min/kg).

| SMILES | pIC50 [1] | CL (h) [2] |
| --- | --- | --- |
| C[C@@H]1CN(c2ccc(C#N)c3ncccc23)C[C@@H]2CCN(Cc3ccc4c(c3)CCNC4)CCN21 [Example 11, 5-[(4R,10aS)-4-methyl-8-(1,2,3,4-tetrahydroisoquinolin-6-ylmethyl)-1,3,4,6,7,9,10,10a-octahydropyrazino[1,2-d][1,4]diazepin-2-yl]quinoline-8-carbonitrile] | 7.31 | 8.2 mL/min/kg |
| C[C@@H]1CN(c2ccc(C#N)c3ncccc23)C[C@@H]2CCN(Cc3cnc(N4CCNCC4)nc3)CCN21 [Example 14, 5-[(4R,10aS)-4-methyl-8-[(2-piperazin-1-ylpyrimidin-5-yl)methyl]-1,3,4,6,7,9,10,10a-octahydropyrazino[1,2-d][1,4]diazepin-2-yl]quinoline-8-carbonitrile] | 7.15 | 9.8 mL/min/kg |
| C[C@@H]1CN(c2ccc(C#N)c3ncccc23)C[C@@H]2CCN(Cc3cnc(N4CCNCC4)cn3)CCN21 [Example 15, 5-[(4R,10aS)-4-methyl-8-[(5-piperazin-1-ylpyrazin-2-yl)methyl]-1,3,4,6,7,9,10,10a-octahydropyrazino[1,2-d][1,4]diazepin-2-yl]quinoline-8-carbonitrile] | 7.44 | 9.9 mL/min/kg |
| C[C@@H]1CN(c2ccc(C#N)c3ncccc23)C[C@@H]2CCN(Cc3ccc(N4CCNCC4)nc3)CCN21 [Example 17, 5-[(4R,10aS)-4-methyl-8-[(6-piperazin-1-yl-3-pyridyl)methyl]-1,3,4,6,7,9,10,10a-octahydropyrazino[1,2-d][1,4]diazepin-2-yl]quinoline-8-carbonitrile] | > 7.50 | 9.2 mL/min/kg |
| C[C@@H]1CN(c2ccc(C#N)c3ncccc23)C[C@@H]2CCN(Cc3ccc(N4CCOC[C@H](N)C4)cn3)CCN21 [Example 21, 5-[(4R,10aS)-8-[[5-[(6R)-6-amino-1,4-oxazepan-4-yl]-2-pyridyl]methyl]-4-methyl-1,3,4,6,7,9,10,10a-octahydropyrazino[1,2-d][1,4]diazepin-2-yl]quinoline-8-carbonitrile] | 6.98 | 8.5 mL/min/kg |

Results, then the molecule that gave them:

| pIC50 [1] | CL (h) [2] | SMILES |
| --- | --- | --- |
| 7.41 | 8.8 mL/min/kg | C[C@@H]1CN(c2ccc(C#N)c3ncccc23)C[C@@H]2CCN(Cc3ncc(N4CCNCC4)cc3F)CCN21 [Example 23, 5-[(4R,10aS)-8-[(3-fluoro-5-piperazin-1-yl-2-pyridyl)methyl]-4-methyl-1,3,4,6,7,9,10,10a-octahydropyrazino[1,2-d][1,4]diazepin-2-yl]quinoline-8-carbonitrile] |
| 7.22 | 9.4 mL/min/kg | CO[C@@H]1CN(c2cnc(CN3CC[C@H]4CN(c5ccc(C#N)c6ncccc56)C[C@@H](C)N4CC3)c(F)c2)C[C@H]1N [Example 24, 5-[(4R,10aS)-8-[[5-[(3R,4R)-3-amino-4-methoxy-pyrrolidin-1-yl]-3-fluoro-2-pyridyl]methyl]-4-methyl-1,3,4,6,7,9,10,10a-octahydropyrazino[1,2-d][1,4]diazepin-2-yl]quinoline-8-carbonitrile] |
| 7.18 | – | CO[C@@H]1CN(c2cnc(CN3CC[C@H]4CN(c5ccc(C#N)n6ncc(F)c56)C[C@@H](C)N4CC3)c(F)c2)C[C@H]1N [Example 27, 4-[(4R,10aS)-8-[[5-[(3R,4R)-3-amino-4-methoxy-pyrrolidin-1-yl]-3-fluoro-2-pyridyl]methyl]-4-methyl-1,3,4,6,7,9,10,10a-octahydropyrazino[1,2-d][1,4]diazepin-2-yl]-3-fluoro-pyrazolo[1,5-a]pyridine-7-carbonitrile] |
| > 7.50 | 6.5 mL/min/kg | C[C@@H]1CN(c2cc(=O)n(C)c3ncccc23)C[C@@H]2CCN(Cc3ccc4c(c3)CNCC4)CCN21 [Example 28, 4-[(4R,10aS)-4-methyl-8-(1,2,3,4-tetrahydroisoquinolin-7-ylmethyl)-1,3,4,6,7,9,10,10a-octahydropyrazino[1,2-d][1,4]diazepin-2-yl]-1-methyl-1,8-naphthyridin-2-one] |
